Results as given in PMC11876601 (Molecular Systems Biology, 2025).
Where two headings read alike, the source gives them in different places.

Legend:
Experiment in all cases: cells
[1] = test system: PSN-1; set-up: ATPlite luminescence viability of PDAC cell lines, 11-dose single-agent curves, 4-parameter fit; details: Homo sapiens, PSN1, 72 h, read-out: EC50 [nM]
How it was run: (§1)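 Drug-combination screening used cells plated at 1000 to 5000 per well one day before treatment. Final DMSO was 0.2%. Each plate held untreated negative-control wells and 5 µM staurosporine positive-control wells.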

[2] = test system: AsPC-1; set-up: ATPlite luminescence viability of PDAC cell lines, 11-dose single-agent curves, 4-parameter fit; details: Homo sapiens, ASPC1, 72 h, read-out: EC50 [nM]
How it was run: as §1

[3] = test system: BxPC-3; set-up: ATPlite luminescence viability of PDAC cell lines, 11-dose single-agent curves, 4-parameter fit; details: Homo sapiens, BXPC-3, 72 h, read-out: EC50 [nM]
How it was run: as §1

[4] = test system: FAMPAC; set-up: ATPlite luminescence viability of PDAC cell lines, 11-dose single-agent curves, 4-parameter fit; details: 72 h, read-out: EC50 [nM]
How it was run: as §1

[5] = test system: MiaPaCa-2; set-up: ATPlite luminescence viability of PDAC cell lines, 11-dose single-agent curves, 4-parameter fit; details: Homo sapiens, MIA PaCa-2, 72 h, read-out: EC50 [nM]
How it was run: as §1

[6] = test system: Colo-357; set-up: Viability of PDAC cell lines, ATPlite luminescence, 11-dose single-agent curve fit; details: Homo sapiens, COLO357, 72 h, read-out: EC50 [nM]
How it was run: (§2)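 screening used cells plated at 1000 to 5000 per well one day before treatment. Final DMSO was 0.2%. Each plate held untreated negative-control wells and 5 µM staurosporine positive-control wells.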

[7] = test system: Suit2-07; set-up: Viability of PDAC cell lines, ATPlite luminescence, 11-dose single-agent curve fit; details: 72 h, read-out: EC50 [nM]
How it was run: as §2

[8] = test system: Dan-G; set-up: Viability of PDAC cell lines, ATPlite luminescence, 11-dose single-agent curve fit; details: 72 h, read-out: EC50 [nM]
How it was run: as §2

[9] = test system: HuP-T4; set-up: Viability of PDAC cell lines, ATPlite luminescence, 11-dose single-agent curve fit; details: Homo sapiens, HuP-T4, 72 h, read-out: EC50 [nM]
How it was run: as §2

[10] = test system: HPDE; set-up: Viability of PDAC cell lines, ATPlite luminescence, 11-dose single-agent curve fit; details: HPDE, 72 h, read-out: EC50 [nM]
How it was run: as §2

[11] = test system: Capan-1; set-up: Viability of PDAC cell lines, ATPlite luminescence, 11-dose single-agent curve fit; details: Homo sapiens, CAPAN-1, 72 h, read-out: EC50 [nM]
How it was run: as §2

[12] = test system: PaTu-8988-T; set-up: Viability of PDAC cell lines, ATPlite luminescence, 11-dose single-agent curve fit; details: Homo sapiens, PaTu 8988t, 72 h, read-out: EC50 [nM]
How it was run: as §2

[13] = test system: PANC-1; set-up: Viability of PDAC cell lines, ATPlite luminescence, 11-dose single-agent curve fit; details: Homo sapiens, PANC-1, 72 h, read-out: EC50 [nM]
How it was run: as §2

[14] = test system: Colo-357; set-up: ATPlite luminescence viability of PDAC cell lines, 11-dose single-agent curves, 4-parameter fit; details: Homo sapiens, COLO357, 72 h, read-out: EC50 [nM]
How it was run: as §1

[15] = test system: Dan-G; set-up: ATPlite luminescence viability of PDAC cell lines, 11-dose single-agent curves, 4-parameter fit; details: 72 h, read-out: EC50 [nM]
How it was run: as §1

[16] = test system: PSN-1; set-up: Viability of PDAC cell lines, ATPlite luminescence, 11-dose single-agent curve fit; details: Homo sapiens, PSN1, 72 h, read-out: EC50 [nM]
How it was run: as §2

[17] = test system: AsPC-1; set-up: Viability of PDAC cell lines, ATPlite luminescence, 11-dose single-agent curve fit; details: Homo sapiens, ASPC1, 72 h, read-out: EC50 [nM]
How it was run: as §2

[18] = test system: BxPC-3; set-up: Viability of PDAC cell lines, ATPlite luminescence, 11-dose single-agent curve fit; details: Homo sapiens, BXPC-3, 72 h, read-out: EC50 [nM]
How it was run: as §2

[19] = test system: FAMPAC; set-up: Viability of PDAC cell lines, ATPlite luminescence, 11-dose single-agent curve fit; details: 72 h, read-out: EC50 [nM]
How it was run: as §2

[20] = test system: MiaPaCa-2; set-up: Viability of PDAC cell lines, ATPlite luminescence, 11-dose single-agent curve fit; details: Homo sapiens, MIA PaCa-2, 72 h, read-out: EC50 [nM]
How it was run: as §2

[21] = test system: Suit2-07; set-up: ATPlite luminescence viability of PDAC cell lines, 11-dose single-agent curves, 4-parameter fit; details: 72 h, read-out: EC50 [nM]
How it was run: as §1

[22] = test system: PaTu-8988-T; set-up: ATPlite luminescence viability of PDAC cell lines, 11-dose single-agent curves, 4-parameter fit; details: Homo sapiens, PaTu 8988t, 72 h, read-out: EC50 [nM]
How it was run: as §1

[23] = test system: HPDE; set-up: ATPlite luminescence viability of PDAC cell lines, 11-dose single-agent curves, 4-parameter fit; details: HPDE, 72 h, read-out: EC50 [nM]
How it was run: as §1

Structure (SMILES) | EC50 [1] | EC50 [2] | EC50 [3] | EC50 [4] | EC50 [5] | EC50 [6] | EC50 [7] | EC50 [8] | EC50 [9] | EC50 [10] | EC50 [11] | EC50 [12] | EC50 [13] | EC50 [14] | EC50 [15] | EC50 [16] | EC50 [17] | EC50 [18] | EC50 [19] | EC50 [21] | other results
Cn1cnc2c(F)c(Nc3ccc(Br)cc3Cl)c(C(=O)NOCCO)cc21 [Selumetinib] | 229 nM | 59.5 nM | 1360 nM | 8370 nM | 24.1 nM | 22.3 nM | 451 nM | 1490 nM | 276 nM | 268 nM | 4670 nM | 94.7 nM | 87.4 nM |  |  |  |  |  |  |  | 
Cc1cc(Nc2ncnc3ccc(NC4=NC(C)(C)CO4)cc23)ccc1Oc1ccn2ncnc2c1 [Tucatinib] |  |  |  |  |  |  | > 10000 nM |  | 292 nM | 3660 nM | 121 nM | > 10000 nM | 5670 nM | 240 nM | 222 nM | 24.4 nM | > 10000 nM | 1010 nM | 7060 nM |  | EC50 [20]: 7710 nM
CC(C)N1CCN(Cc2cnc(-c3cc(-c4cccc5[nH]ccc45)cc4[nH]ncc34)o2)CC1 [Nemiralisib] |  | > 10000 nM | 4420 nM |  | > 10000 nM | 3010 nM |  | 5040 nM | 3260 nM | 7360 nM | 10.5 nM | 811 nM | > 10000 nM |  |  | 5830 nM |  |  | > 10000 nM | > 10000 nM | 
Cc1cc2c(F)c(Oc3ncnn4cc(OC[C@@H](C)OC(=O)[C@H](C)N)c(C)c34)ccc2[nH]1 [Brivanib alaninate] |  |  |  |  |  |  | > 10000 nM | 3820 nM | 2460 nM | 3160 nM | > 10000 nM | > 10000 nM | 3760 nM | 3560 nM |  | 3990 nM | 3000 nM | > 10000 nM | > 10000 nM |  | EC50 [20]: 3140 nM
COCc1c(-c2cc3cc(C)cc(OC)c3s2)c2c(N)ncnn2c1CN1CCNC(=O)C1 [Rogaratinib] | 3270 nM | 3450 nM | 4270 nM | 3300 nM | 2050 nM | 3150 nM |  |  | 24.2 nM | 7330 nM | 5610 nM |  | 3980 nM |  | 3460 nM |  |  |  |  | > 10000 nM | EC50 [22]: 3870 nM
CC(=O)c1c(C)c2cnc(Nc3ccc(N4CCNCC4)cn3)nc2n(C2CCCC2)c1=O [Palbociclib] | > 10000 nM |  |  |  | > 10000 nM |  |  |  | 0.1 nM | > 10000 nM | 5070 nM |  | > 10000 nM | 5610 nM | 8540 nM |  | 4830 nM | 2930 nM | 1390 nM | > 10000 nM | EC50 [22]: > 10000 nM
CC[C@H](Nc1ncnc2[nH]cnc12)c1nc2cccc(F)c2c(=O)n1-c1ccccc1 [Idelalisib] |  |  |  |  |  |  | 5950 nM |  | 754 nM | 9240 nM | 9330 nM | 10000 nM | 3010 nM | 3360 nM | 2130 nM | 545 nM | 2530 nM | 3910 nM | > 10000 nM |  | EC50 [20]: 8760 nM
CC(C)NC[C@@H](C(=O)N1CCN(c2ncnc3c2[C@H](C)C[C@H]3O)CC1)c1ccc(Cl)cc1 [Ipatasertib] |  |  |  |  |  |  |  |  | 310 nM | 5290 nM | 4690 nM | 543 nM | > 10000 nM | 151 nM | 1150 nM | 7080 nM | 154 nM | 246 nM | 642 nM | 3240 nM | EC50 [20]: 3940 nM
COc1cc(CCc2cc(NC(=O)c3ccc(N4C[C@@H](C)N[C@@H](C)C4)cc3)n[nH]2)cc(OC)c1 [AZD4547] | 8650 nM | > 10000 nM | 6320 nM |  | > 10000 nM | 1080 nM |  | 0.1 nM | 9460 nM | 5300 nM | 0.79 nM | 7380 nM | 5350 nM |  |  |  |  |  | > 10000 nM | 9040 nM | 
COC(=O)N[C@@H](C)CNc1nccc(-c2cn(C(C)C)nc2-c2cc(Cl)cc(NS(C)(=O)=O)c2F)n1 [Encorafenib] | 800 nM | 3210 nM | 296 nM | 943 nM | 1290 nM |  |  |  |  | 1140 nM | 453 nM | 1220 nM | 6620 nM | 1020 nM | 620 nM |  |  |  |  | 1790 nM | 
CO[C@]1(C(=O)N[C@@H](C)c2ccc(-n3cc(F)cn3)nc2)CC[C@H](c2nc(C)cc(Nc3cc(C)[nH]n3)n2)CC1 [Pralsetinib] | 5870 nM |  | 2910 nM | 5210 nM | 773 nM |  |  |  | 4550 nM | 4600 nM | > 10000 nM |  | 1860 nM | 6960 nM | 6680 nM |  | 1820 nM |  |  | > 10000 nM | EC50 [22]: 6490 nM
Cc1nc(NC(=O)N2CCC[C@H]2C(N)=O)sc1-c1ccnc(C(C)(C)C(F)(F)F)c1 [Alpelisib] |  | 3740 nM | 1640 nM |  | 1400 nM |  | 2060 nM |  | 21.8 nM | 7680 nM | 5110 nM |  | > 10000 nM | 355 nM | 661 nM | 269 nM |  |  | 3750 nM |  | EC50 [22]: 3930 nM
Cn1cnc2c(F)c(Nc3ccc(Br)cc3F)c(C(=O)NOCCO)cc21 [Binimetinib] | 71.8 nM | 83.9 nM | 381 nM | 2430 nM | 10.7 nM | 58.4 nM | 112 nM | 504 nM | 176 nM | 222 nM | 401 nM | 155 nM | 350 nM |  |  |  |  |  |  |  | 
COC(=O)c1ccc2c(c1)NC(=O)/C2=C(\Nc1ccc(N(C)C(=O)CN2CCN(C)CC2)cc1)c1ccccc1 [Nintedanib] | 8030 nM | > 10000 nM | 4940 nM | > 10000 nM | 1030 nM | 9780 nM |  |  | 146 nM | 1550 nM | 10200 nM |  | 77.7 nM |  | 6960 nM |  |  |  |  | > 10000 nM | EC50 [22]: 6690 nM
C=CC(=O)N1CCC[C@@H](n2nc(-c3ccc(Oc4ccccc4)cc3)c3c(N)ncnc32)C1 [Ibrutinib] |  |  |  |  |  | 373 nM | 396 nM |  | 54.2 nM |  | 317 nM | 166 nM | 1170 nM |  | 56.6 nM | 1100 nM | 46.1 nM | 128 nM | 28.3 nM |  | EC50 [23]: 521 nM; EC50 [20]: 1840 nM
